Experimental findings from patent US10112941B2, “Tricyclic compounds as anticancer agents” (BRISTOL-MYERS SQUIBB COMPANY, priority 2013, dated 2018) are described below.

Bounds are passed on as bounds.

In assay [1] the target is BRD4 (Homo sapiens, UniProt O60885). Briefly: Time Resolved Fluorescence Resonance Energy Transfer (TR-FRET) binding assay, BRD4. The settings on record: one of the FRET assays described; read-out: FRET BRD4 IC50. For orientation: Time-resolved FRET reads energy transfer from a long-lived donor to a nearby acceptor.
Assay [2] concerns H187 Human Small Cell Carcinoma. Briefly: Human tumor xenograft model in mice, H187. The format is in vivo. The settings on record: QD × 7. The source says: (§1) All rodents were obtained from Jackson Laboratory. (Bar Harbor, Me.), and maintained in an ammonia-free environment in a defined and pathogen-free colony. All mice were quarantined approximately 1 week prior to their use for tumor propagation and drug efficacy testing. Mice were fed food and water ad libitum. The animal care program of Bristol-Myers Squibb Pharmaceutical Research Institute is fully accredited by the American Association for Accreditation of Laboratory Animal Care (AAALAC). All experiments were performed in accordance with Bristol-Myers Squibb (BMS) animal test methods and guidelines.
(§2) Tumor xenografts were grown and maintained subcutaneously (SC) in NSG (NOD scid IL2 receptor gamma chain knockout) mice (Jackson Lab). Tumors were propagated as subcutaneous transplants using tumor fragments obtained from donor mice.
(§3) The required numbers of animals needed to detect a meaningful response were pooled at the start of the experiment and each was given bilateral subcutaneous implants of two tumor fragments (˜20 mg) with a 13-gauge trocar. Tumors were allowed to grow to the pre-determined size window (tumors outside the range were excluded) and animals were evenly distributed to various treatment and control groups. There were typically 6-8 mice per treatment and control groups, consisting of 10-12 tumors. Treatment of each animal was based on individual body weight. Treated animals were checked daily for treatment related toxicity/mortality. Each group of animals was weighed before the initiation of treatment (Wt1) and then again following the last treatment dose (Wt2). The difference in body weight (Wt2−Wt1) provides a measure of treatment-related toxicity.
(§4) Tumor response was determined by measurement of tumors with a caliper twice a week, until the tumors reached a predetermined “target” size of 0.5 gm or 1 gm depending on the tumor type. Tumor weights (mg) were estimated from the formula: Tumor weight=(length×width^2)÷2
(§5) Tumor response criteria are expressed in terms of tumor growth inhibition (% TGI). Tumor growth delay is defined as the difference in time (days) required for the treated tumors (T) to reach a predetermined target size compared to those of the control group (C). For this purpose, the tumor weight of a group is expressed as medium tumor weight (MTW).
(§6) [formula] where, • Ct=Median control tumor size at end of treatment • C0=Median control tumor size at treatment initiation • Tt=Median tumor size of treated group at end of treatment • T0=Median tumor size of treated group at treatment initiation
(§7) Tumor response was also expressed in terms of tumor growth delay and expressed as log cell kill (LCK value), defined as the difference in time (days) required for the treated tumors (T) to reach a predetermined target size compared to those of the control group (C).
(§8) Whenever possible, antitumor activity was determined at a range of dose levels up to the maximum tolerated dose (MTD) which is defined as the dose level immediately […] which excessive toxicity (i.e. more than one death) occurred. When death occurred, the day of death was recorded. Treated mice dying prior to having their tumors reach target size were considered to have died from drug toxicity. No control mice died bearing tumors less than target size. Treatment groups with more than one death caused by drug toxicity were considered to have had excessively toxic treatments and their data were not included in the evaluation of a compound's antitumor efficacy.
(§9) For administration of BET inhibitors to rodents, compounds were dissolved in […]/10% TPGS/10% Ethanol. BET inhibitors were typically administered orally on a schedule of QD×7 or QD×10 (5 day-on-2 day-off), although other schedules had also been evaluated and shown to be efficacious

Assay [3] relates to JJN3R multiple myeloma cell line. Nature of the assay: Human tumor xenograft model in mice, JJN3R. It is filed as in vivo. Conditions: QD × 7.
Text: as §1, §2, §3, §4, §5, §6, §7, §8, §9
(Xenograft models place foreign cells or tissue in a host animal.)

For the molecule `Cc1nnn(C)c1-c1cnc2c3ccc(C(C)(C)O)c(F)c3n(C(c3ccccc3)C3CCOCC3)c2c1` (single isomer, unassigned) [Example 70, 2-[3-(dimethyl-1H-1,2,3-triazol-5-yl)-6-fluoro-5-[oxan-4-yl(phenyl)methyl]-5H-pyrido[3,2-b]indol-7-yl]propan-2-ol], the IC50 in assay [1] is below 5 nM. In addition, the “% TGI” value is reported as 82.0% in assay [2] (H187, 1 mg/kg); 90.0% in assay [2] (H187, 3 mg/kg); 96.0% in assay [2] (H187, 10 mg/kg). Further, the LCK in assay [2] (H187, 1 mg/kg) was 0.7; in assay [2] (H187, 3 mg/kg) it was 1.0; in assay [2] (H187, 10 mg/kg), 1.6.

For `[2H]C([2H])([2H])c1nnn(C)c1-c1cnc2c3ccc(C(C)(C)O)cc3n(C(c3ccccc3)C3CCC(F)(F)CC3)c2c1` (stereo not drawn) [Example 203, 2-{5-[(4,4-Difluorocyclohexyl)(phenyl)methyl]-3-[4-(^2H3)methyl-1-methyl-1H-1,2,3-triazol-5-yl]-5H-pyrido[3,2-b]indol-7-yl}propan-2-ol], the IC50 in assay [1] was below 5 nM. Moreover, the “% TGI” value was 93% in assay [3] (1 mg/kg) and 105% in assay [3] (4 mg/kg). The LCK is recorded as 0.7 in assay [3] (1 mg/kg) and above 1.4 in assay [3] (4 mg/kg).

Regarding `[2H]C([2H])([2H])c1nnn(C)c1-c1cnc2c3ccc(S(C)(=O)=O)cc3n([C@H](c3ccccc3)C3CCOCC3)c2c1` [Example 263, 5-{7-Methanesulfonyl-5-[(S)-oxan-4-yl(phenyl)methyl]-5H-pyrido[3,2-b]indol-3-yl}-4-(^2H3)methyl-1-methyl-1H-1,2,3-triazole], the IC50 in assay [1] was below 5 nM. The LCK in assay [3] (1 mg/kg) is reported as 0.2; in assay [3] (4 mg/kg), 0.3.

Take `[2H]C([2H])([2H])c1nnn(C)c1-c1cnc2c3cc(F)c(C(C)(C)O)cc3n([C@H](c3ccccc3)C3CCOCC3)c2c1` [Example 279, 2-{8-Fluoro-3-[4-(^2H3)methyl-1-methyl-1H-1,2,3-triazol-5-yl]-5-[(S)-oxan-4-yl(phenyl)methyl]-5H-pyrido[3,2-b]indol-7-yl}propan-2-ol]: the half-maximal inhibitory concentration (IC50) in assay [1] was below 5 nM. The LCK in assay [3] (1 mg/kg) is reported as 0.6; in assay [3] (4 mg/kg) it was above 1.4.

For `Cc1nnn(C)c1-c1cnc2c3ccc(C(C)(O)C4CC4)c(F)c3n([C@H](c3ccccc3F)C3CCOCC3)c2c1` (single isomer, unassigned) [Example 436], the half-maximal inhibitory concentration (IC50) in assay [1] was below 5 nM. The LCK in assay [3] (1 mg/kg) worked out at 0.6; in assay [3] (4 mg/kg), 0.9.

Regarding `[2H]C([2H])([2H])c1nnn(C)c1-c1cnc2c3ccc(C(C)(C)O)c(F)c3n([C@H](c3ccccc3)C3CCOCC3)c2c1` [Example 278, 2-{6-Fluoro-3-[4-(^2H3)methyl-1-methyl-1H-1,2,3-triazol-5-yl]-5-[(S)-oxan-4-yl(phenyl)methyl]-5H-pyrido[3,2-b]indol-7-yl}propan-2-ol], the IC50 in assay [1] is below 5 nM. For the same molecule, the results for the LCK in assay [3] (1 mg/kg) and in assay [3] (4 mg/kg) were 1 and above 1.4, respectively.

Broadly, the IC50 is the midpoint of a concentration-inhibition curve.
